# Patent US6747013B2, “Therapy for cellular accumulation in chronic inflammatory diseases” (The Regents of the University of California, priority 1995, dated 2004)
# Numbered stars: 1 amine (or outer) side, 2 acyl side, 3 side chain; on linkers, the order of the positions; unused ones are H or OH. Bridge positions count the residues as written; N and C are the ends. Square brackets hold non-standard residues; d marks the D form. Peptide text beside a SMILES is read from it. I, II: the chains in the order shown. Actinocin(9to1) = Cc1c2oc3c(C)ccc(C(=O)[*:1])c3nc-2c(C(=O)[*:2])c(N)c1=O; NMeV = CN[C@H](C(=O)O)C(C)C; Sar = CNCC(=O)O
# B1: IFN-gamma: recombinant human IFN-gamma, cytokine purchased from Genzyme (protein, UniProt P01579 24-161, looked up)
# Interferon gamma: QDPYVKEAENLKKYFNAGHSDVADNGTLFLGILKNWKEESDRKIMQSQIVSFYFKLFKNFKDDQSIQKSVETIKEDMNVKFFNSNKKKRDDFEKLTNYSVTDLNVQRKAIHELIQVMAELSPAAKTGKRKRSQMLFRG
# Experiments:
# [1] = test system: fibroblast-like synoviocytes (FLS); assay: ISEL assay of apoptosis (DNA fragmentation) in cultured fibroblast-like synoviocytes; type: cell-based, human; conditions: for % apoptotic cells Without IFN-gamma (100 U/ml) / % apoptotic cells With IFN-gamma: FLS incubated with mediator for 16 h, n = 3, ISEL assay; for % apoptotic cells Without IFN-gamma (100 U/ml): 'Without IFN-gamma (100 U/ml)' [sic]; for % apoptotic cells With IFN-gamma: concentrations: IL-1 1 ng/ml, TNF-alpha 100 ng/ml, act D 0.5 ug/ml, anti-fas 80 ng/ml; for DNA fragmentation in FLS (ISEL assay), in words: cultured FLS in chamber slides, agent alone; for effect of combination on FLS apoptosis, in words: in combination with other apoptosis-inducing factors
# Experimental: Fragmented DNA was detected in cell nuclei using a modification of previously described methods (Wood et a., Neuron., 11:621-32, 1993 and Wijsman et al., J. Histochem. Cytochem. 41:7-12, 1993). Frozen section of synovial tissue (5-6 microns thick) were placed onto poly-L-lysine coated slides and air dried for at least 2 hours. The tissue sections were then fixed with EtOH/Acetic acid 3:1 for 10 min at room temperature and washed with buffer 1 (see below) for 5 min. The slides were then air dried 1 or at least 2 h. 10-15 ul of DNA polymerase mix were added to each section and incubated at room temperature for 1 h. The sections were washed with buffer 1 (see below) for 5 min at room temperature followed by a wash in buffer 2 for 5 min.
# Alkaline phosphatase conjugated anti-digoxigenin antibody was diluted to 1:500 in buffer 2 and 15-20 ul was applied to each specimen. The slides were incubated at 37° C. for 2 hrs in a humidified chamber and then washed with buffer 1 for 5 min. They were then equilibrated with buffer 3 for 5 min and the color reagent (NBT+BCIP) was added to the specimens. After about 30 min the slides were washed with distilled water, counterstained with eosin or methyl green and dehydrated with graded alcohol washes. The developing reagent gave a dark purple color for positive signals. Buffers: 10× DNA polymerase buffer=0.5M Tris.Cl pH7.5, 0.1M MgCl2, 1 mM DTT; 10× nucleotide mix=1 mM each of dATP, dCTP and dGTP, 0.4 mM dTTP; DNA polymerase mix=10× DNA pol buffer (2 ul), […] nucleotide mix (2 ul); 100 uM dig-11-dUTP (0.5 ul), Klenow polymerase (2 ul (2 U)), Water (13.5 ul); Buffer 1=100 mM Tris.Cl pH7.5, 150 mM NaCl; Buffer 2=0.5% Blocking agent in buffer 1, Buffer 3=100 […]. Quantification of ISEL assay. A semiquantitative scale was used to estimate the degree of ISEL staining in tissue sections that had been counterstained with methyl green to distinguish ISEL-positive and -negative cells. Four areas were reviewed by a blinded investigator: the synovial intimal lining, the sublining, blood vessels, and lymphoid aggregates. The extent of staining in the area was estimated and scored as using a previously established semiquantitative scale.
# Synovial cells were isolated by enzymatic dispersion of synovial tissues as previously described (Alvaro-Gracia, et al., supra). Briefly, the tissues were minced and incubated with 1 mg/ml collagenase in serum-free DMEM (Gibco, Grand Island, N.Y.) for 2 h at 37° C., filtered through a nylon mesh, extensively washed, and cultured in DMEM supplemented with 10% fetal calf serum (FCS) (Gibco, endotoxin content <0.006 ng/ml), penicillin, streptomycin, and L-glutamine in a humidified 5% Co2 atmosphere. After overnight culture, non-adherent cells were removed and adherent cells were cultivated in DMEM plus 10% FCS.
# At confluence, cells were trypsinized, split at a 1:3 ratio, and recultured in medium. Synoviocytes were used from passages 3 through 9 in these experiments, during which time they were a homogeneous population of fibroblast-like synoviocytes (FLS)(<1% CD11b, <1% phagocytic, and <1% Fc-gamma RII receptor positive).
# (§1) The presence of CD68-negative apoptotic cells in the synovial lining prompted an analysis of the regulation of FLS apoptosis in vitro. […] Osteoarthritis and rheumatoid arthritis-derived FLS were equally susceptible to induction of DNA strand breaks.
# Rheumatoid arthritis FLS = assay: 3HdTr nuclear fragmentation assay; type: cell-based, human; conditions: FIG. 8; cytokines or antibodies 8 h, act D 4 h
# Experimental: Rheumatoid arthritis FLS were seeded at 10^4 cells/well in a 96-well microtiter plate. The cells were cultured at 37° C. and 5% CO2 for 2 days. On the third day, 10 uCi/ml/well of 3HdTR was added to each well and incubated overnight. The cells were then treated with different concentrations of cytokines or antibodies for 8 h or actinomycin D (act D) for 4 h and then lysed by 2 rounds of freeze-thaw cycles. Lysed cells and media were aspirated onto fiber glass filters using a cell harvester. The filters were washed to remove unincorporated nucleotides and counted in a liquid scintillation counter. All points were done in triplicates. Percent specific fragmentation was calculated as follows: (S-E)×100/S, where E=retained cpms on the filter in the presence of cytokine and S=retained cpms on the filter in the medium control (Matzinger, P., J. Immunological Methods 145:185-92, 1991).
# as §1
# p53 in RA FLS = conditions: 8-9 hr after stimulating with H2O2 for 100 min; n=3; medium alone 10.7±2.4%
# Experimental: (§2) The intracellular location of p53 protein is an important determinant of its functional capabilities. It is known that p53 can reside in the cytoplasm (generally bound to hsc70) but is transported to the nucleus after DNA damage or proliferative signals. […] Immunohistochemistry was then performed on cultured RA FLS to determine the subcellular localization of p53.
# [2] = test system: p53 in dermal fibroblasts; conditions: after exposure to H2O2; before 5±11%
# Experimental: as §2
# Fas on FLS = assay: Surface Fas expression on FLS by flow cytometry (FACS); type: cell-based, human; conditions: IL-1beta 1 ng/ml or TNF-alpha 100 ng/ml for 16 to 24 hours; pooled RA and OA FLS
# Experimental: FLS (1-2×105) were cultured in 6-well plastic dishes (Costar, Cambridge, Mass.) in DMEM-10% FCS. Cells were harvested with 5 mM EDTA at 4° C. and stained with anti-fas or control antibody (Kamiya Biomedical Co., Thousand Oaks, Calif.) as previously described (Alvaro-Gracia, et al., supra). Phycoerythrin conjugated Fab2 anti-mouse IgG (Tago Inc. Burlingame, Calif.) was used as a secondary antibody. An isotype matched MAb was used as negative control. Induction of Fas expression by cytokines was calculated from the mean fluorescence channels (MFC) as follows: relative MFC=(MF(Ccytokine-MFClgG)/(MFCmedium-MFClgG). A cell was defined a positive if its MFC was greater than 98% of cells stained with the control antibody. Statistical analysis. Data were analyzed using the paired Student t test and are presented as mean+SEM.
# Since anti-fas antibody induced DNA fragmentation in FLS, fas expression was determined on these cells using flow cytometry. Many FLS constitutively expressed Fas protein on the cell surface (see FIG. 9 for a representative experiment (n=7; 4 rheumatoid arthritis and 3 osteoarthritis)). There were no significant differences between osteoarthritis and rheumatoid arthritis FLS with regard to the level of surface Fas expression on resting synoviocytes. […]
# mouse air pouch tissue = assay: Mouse air pouch model of inflammation with TUNEL staining; type: in vivo; conditions: 3 ml of 1% carrageenan into pouch, two days after injection
# Experimental: In this standard model, mice were lightly anesthetized with halothane and 3 ml of sterile filtered air was injected subcutaneously into the back, forming a pocket. This procedure was repeated twice over the next 5 days to form a mature pouch. Subsequently, 3 ml of 1% carrageenan was injected into the pouches. Carrageenan is a highly inflammatory natural substance that, when injected into body cavities, induces leukocyte recruitment, cytokine gene expression, and release of a variety of small molecule mediators. Two days after carrageenan injection, the mice were sacrificed and the pouches were removed. The excised pouches were fixed in formaldehyde and histologic sections were prepared. The sections were subsequently stained using the TUNEL technique (Wood, et al., Neuron, 11:621, 1993) to identify cells with fragmented DNA that were undergoing apoptosis.
Molecule,% apoptotic cells Without IFN-gamma (100 U/ml) [1],% apoptotic cells With IFN-gamma [1],"DNA fragmentation in FLS (ISEL assay), in words [1]","DNA fragmentation in cultured FLS (3HdTr nuclear fragmentation), in words (Rheumatoid arthritis FLS)",% of FLS with prominent nuclear p53 staining (p53 in RA FLS),% of dermal fibroblasts with nuclear p53 staining [2],"surface Fas expression on FLS, in words (Fas on FLS)","effect of combination on FLS apoptosis, in words [1]","TUNEL-positive cells in air pouch tissue, in words (mouse air pouch tissue)","inflammatory infiltration of the air pouch, in words (mouse air pouch tissue)"
"Cc1c2oc3c(C)ccc(C(=O)N[C@@H]4C(=O)N[C@H](C(C)C)C(=O)N5CCC[C@H]5C(=O)N(C)CC(=O)N(C)[C@@H](C(C)C)C(=O)O[C@@H]4C)c3nc-2c(C(=O)N[C@@H]2C(=O)N[C@H](C(C)C)C(=O)N3CCC[C@H]3C(=O)N(C)CC(=O)N(C)[C@@H](C(C)C)C(=O)O[C@@H]2C)c(N)c1=O [actinomycin D, reference compound] (I: T[dV]P[Sar][NMeV] / II: T[dV]P[Sar][NMeV]; ester I:1-I:C, II:1-II:C; linker I:N-II:N via Actinocin(9to1))",6 ± 3 %,37 ± 5%,caused significant DNA fragmentation,caused DNA fragmentation,–,–,–,–,–,–
OO [hydrogen peroxide],–,–,–,–,70.7±12.8%,75±17%,–,–,–,–
"IL-1: Recombinant hIL-1 beta, cytokine purchased from Genzyme",0 ± 2 %,50 ± 2%,caused significant DNA fragmentation,caused DNA fragmentation,–,–,"slight increase, the difference did not reach statistical significance",–,–,–
TNF-alpha,3 ± 2 %,35 ± 1%,caused significant DNA fragmentation,caused DNA fragmentation,–,–,significantly increased surface Fas expression,additive with actinomycin D,–,–
carrageenan,–,–,–,–,–,–,–,–,large foci of TUNEL-positive cells were present,an inflammatory exudate was present
B1,6 ± 2%,–,minimal effect,–,–,–,–,significantly reduced FLS apoptosis,–,–
